≈ marks a conversion by molar mass, not a printed value.
Legend:
Test in all cases: Bacterial growth minimal inhibitory concentration (microdilution, CLSI M7-A7)
Assay type in all cases: cell-based
[1] = test system: Acinetobacter baumannii T6474; conditions: Acinetobacter baumannii, T6474; multiply-resistant strain (in particular quinolone-resistant); cation-adjusted Mueller-Hinton Broth
Description: (§1) Minimal Inhibitory Concentrations (MICs; mg/L) were determined in cation-adjusted Mueller-Hinton Broth by a microdilution method following the description given in “Methods for Dilution Antimicrobial Susceptibility Tests for Bacteria that Grow Aerobically”, Approved standard, 7th ed., Clinical and Laboratory Standards Institute (CLSI) Document M7-A7, Wayne, Pa., USA (2006).
(§2) All Example compounds were tested against several Gram-positive and Gram-negative bacteria. […] K. pneumoniae A-651 and Acinetobacter baumannii T6474 are multiply-resistant strains (in particular quinolone-resistant), while E. coli ATCC25922 and P. aeruginosa ATCC27853 are quinolone-sensitive strains.

E. coli ATCC25922 = conditions: Escherichia coli, ATCC25922; quinolone-sensitive strain; cation-adjusted Mueller-Hinton Broth
Description: as §1, §2

K. pneumoniae A-651 = conditions: Klebsiella pneumoniae, A651; multiply-resistant strain (in particular quinolone-resistant); cation-adjusted Mueller-Hinton Broth
Description: as §1, §2

P. aeruginosa ATCC27853 = conditions: Pseudomonas aeruginosa, ATCC27853; quinolone-sensitive strain; cation-adjusted Mueller-Hinton Broth
Description: as §1, §2

Row | Compound | MIC [1] [mg/L] | MIC (E. coli ATCC25922) [mg/L] | MIC (K. pneumoniae A-651) [mg/L] | MIC (P. aeruginosa ATCC27853) [mg/L]
1 | C[C@@](CCn1ccc2cc(C#CC#CC3(O)COC3)ccc21)(C(=O)NO)S(C)(=O)=O [Example 11, (R)—N-hydroxy-4-(5-((3-hydroxyoxetan-3-yl)buta-1,3-diyn-1-yl)-1H-indol-1-yl)-2-methyl-2-(methylsulfonyl)butanamide] | 16 (≈ 37.2 µM) | 0.5 (≈ 1.16 µM) | 0.25 (≈ 0.581 µM) | 1 (≈ 2.32 µM)
2 | C[C@@](CCn1ncc2cc(C#CC#CC3(O)CSC3)ccc21)(C(=O)NO)S(C)(=O)=O [Example 13, (R)—N-hydroxy-4-(5-((3-hydroxythietan-3-yl)buta-1,3-diyn-1-yl)-1H-indazol-1-yl)-2-methyl-2-(methylsulfonyl)butanamide] | 8 (≈ 17.9 µM) | 0.25 (≈ 0.559 µM) | 0.25 (≈ 0.559 µM) | 1 (≈ 2.23 µM)
3 | C[C@@](CCn1ccc2cc(C#CC#C[C@H]3C[C@@H]3CO)ccc21)(C(=O)NO)S(C)(=O)=O [Example 17, (R)—N-hydroxy-4-(5-(((1S,2S)-2-(hydroxymethyl)cyclopropyl)buta-1,3-diyn-1-yl)-1H-indol-1-yl)-2-methyl-2-(methylsulfonyl)butanamide] | 16 (≈ 37.3 µM) | ≤ 0.063 | 0.125 (≈ 0.292 µM) | 0.5 (≈ 1.17 µM)
4 | C[C@@](CCn1ccc2cc(C#CC#C[C@@H]3C[C@H]3CO)ccc21)(C(=O)NO)S(C)(=O)=O [Example 18, (R)—N-hydroxy-4-(5-(((1R,2R)-2-(hydroxymethyl)cyclopropyl)buta-1,3-diyn-1-yl)-1H-indol-1-yl)-2-methyl-2-(methylsulfonyl)butanamide] | 16 (≈ 37.3 µM) | ≤ 0.063 | ≤ 0.063 | 0.5 (≈ 1.17 µM)
5 | C[C@@](CCn1ncc2cc(C#Cc3ccc([C@H]4C[C@@H]4CO)cc3)ccc21)(C(=O)NO)S(C)(=O)=O [Example 19, (R)—N-hydroxy-4-(5-((4-((1S,2S)-2-(hydroxymethyl)cyclopropyl)phenyl)ethynyl)-1H-indazol-1-yl)-2-methyl-2-(methylsulfonyl)butanamide] | ≤ 0.063 | 0.125 (≈ 0.26 µM) | 0.25 (≈ 0.519 µM) | 1 (≈ 2.08 µM)
6 | C[C@@](CCn1ncc2cc(C#Cc3ccc([C@@H]4C[C@H]4CO)cc3)ccc21)(C(=O)NO)S(C)(=O)=O [Example 20, (R)—N-hydroxy-4-(5-((4-((1R,2R)-2-(hydroxymethyl)cyclopropyl)phenyl)ethynyl)-1H-indazol-1-yl)-2-methyl-2-(methylsulfonyl)butanamide] | ≤ 0.063 | ≤ 0.063 | 0.25 (≈ 0.519 µM) | 1 (≈ 2.08 µM)
7 | CC(C)(N)C#CC#Cc1ccc2c(cnn2CC[C@](C)(C(=O)NO)S(C)(=O)=O)c1 [Example 24, (R)-4-(5-(5-amino-5-methylhexa-1,3-diyn-1-yl)-1H-indazol-1-yl)-N-hydroxy-2-methyl-2-(methylsulfonyl)butanamide] | > 32 | 1 (≈ 2.4 µM) | 4 (≈ 9.6 µM) | 1 (≈ 2.4 µM)
8 | C[C@@](CCn1ccc2cc(C#Cc3ccc(C4(CO)CC4)cc3)ccc21)(C(=O)NO)S(C)(=O)=O [Example 25, (R)—N-hydroxy-4-(5-((4-(1-(hydroxymethyl)cyclopropyl)phenyl)ethynyl)-1H-indol-1-yl)-2-methyl-2-(methylsulfonyl)butanamide] | 0.5 (≈ 1.04 µM) | 0.25 (≈ 0.52 µM) | 0.5 (≈ 1.04 µM) | 2 (≈ 4.16 µM)
9 | C[C@@](CCn1ncc2cc(C#CC#C[C@H]3C[C@@H]3CO)ccc21)(C(=O)NO)S(C)(=O)=O [Example 26, (R)—N-hydroxy-4-(5-(((1S,2S)-2-(hydroxymethyl)cyclopropyl)buta-1,3-diyn-1-yl)-1H-indazol-1-yl)-2-methyl-2-(methylsulfonyl)butanamide] | 2 (≈ 4.66 µM) | ≤ 0.063 | 0.125 (≈ 0.291 µM) | 0.5 (≈ 1.16 µM)
10 | CC(C)(O)c1ccc(C#Cc2ccc3c(ccn3CC[C@](C)(C(=O)NO)S(C)(=O)=O)c2)cc1 [Example 29, (R)—N-hydroxy-4-(5-((4-(2-hydroxypropan-2-yl)phenyl)ethynyl)-1H-indol-1-yl)-2-methyl-2-(methylsulfonyl)butanamide] | 0.5 (≈ 1.07 µM) | 0.25 (≈ 0.534 µM) | 0.5 (≈ 1.07 µM) | 2 (≈ 4.27 µM)
11 | C[C@@](CCn1ncc2c(F)c(C#Cc3ccc(C4(O)COC4)cc3)ccc21)(C(=O)NO)S(C)(=O)=O [Example 30, (R)-4-(4-fluoro-5-((4-(3-hydroxyoxetan-3-yl)phenyl)ethynyl)-1H-indazol-1-yl)-N-hydroxy-2-methyl-2-(methylsulfonyl)butanamide] | 0.125 (≈ 0.249 µM) | 0.25 (≈ 0.498 µM) | 0.5 (≈ 0.997 µM) | 1 (≈ 1.99 µM)
12 | C[C@@](CCn1ncc2c(F)c(C#CC#C[C@H]3C[C@@H]3CO)ccc21)(C(=O)NO)S(C)(=O)=O [Example 31, (R)-4-(4-fluoro-5-(((1S,2S)-2-(hydroxymethyl)cyclopropyl)buta-1,3-diyn-1-yl)-1H-indazol-1-yl)-N-hydroxy-2-methyl-2-(methylsulfonyl)butanamide] | 1 (≈ 2.23 µM) | ≤ 0.063 | ≤ 0.063 | 0.5 (≈ 1.12 µM)
13 | C[C@@](CCn1ccc2cc(C#Cc3ccc([C@H]4C[C@@H]4CO)cc3)ccc21)(C(=O)NO)S(C)(=O)=O [Example 33, (R)—N-hydroxy-4-(5-((4-((1S,2S)-2-(hydroxymethyl)cyclopropyl)phenyl)ethynyl)-1H-indol-1-yl)-2-methyl-2-(methylsulfonyl)butanamide] | 0.125 (≈ 0.26 µM) | 0.125 (≈ 0.26 µM) | 0.25 (≈ 0.52 µM) | 2 (≈ 4.16 µM)
14 | C[C@@](CCn1ncc2cc(C#CC#CC3(CO)CC3)ccc21)(C(=O)NO)S(C)(=O)=O [Example 34, (R)—N-hydroxy-4-(5-((1-(hydroxymethyl)cyclopropyl)buta-1,3-diyn-1-yl)-1H-indazol-1-yl)-2-methyl-2-(methylsulfonyl)butanamide] | 16 (≈ 37.3 µM) | 0.25 (≈ 0.582 µM) | 0.5 (≈ 1.16 µM) | 1 (≈ 2.33 µM)

Further lines, results first:

Row | MIC [1] [mg/L] | MIC (E. coli ATCC25922) [mg/L] | MIC (K. pneumoniae A-651) [mg/L] | MIC (P. aeruginosa ATCC27853) [mg/L] | Compound
15 | 0.25 (≈ 0.517 µM) | 0.25 (≈ 0.517 µM) | 0.25 (≈ 0.517 µM) | 1 (≈ 2.07 µM) | C[C@@](CCn1ncc2cc(C#Cc3ccc(C4(O)COC4)cc3)ccc21)(C(=O)NO)S(C)(=O)=O [Example 12, (R)—N-hydroxy-4-(5-((4-(3-hydroxyoxetan-3-yl)phenyl)ethynyl)-1H-indazol-1-yl)-2-methyl-2-(methylsulfonyl)butanamide]
16 | 0.125 (≈ 0.274 µM) | ≤ 0.063 | 0.25 (≈ 0.549 µM) | 1 (≈ 2.2 µM) | C[C@@](CCn1ncc2cc(C#Cc3ccc(CCO)cc3)ccc21)(C(=O)NO)S(C)(=O)=O [Example 14, (R)—N-hydroxy-4-(5-((4-(2-hydroxyethyl)phenyl)ethynyl)-1H-indazol-1-yl)-2-methyl-2-(methylsulfonyl)butanamide]
17 | 0.25 | ≤ 0.063 | 0.125 | 1 | C[C@@H](O)c1ccc(C#Cc2ccc3c(cnn3CC[C@](C)(C(=O)NO)S(C)(=O)=O)c2)cc1.Cl [Example 16, (R)—N-hydroxy-4-(5-((4-((R)-1-hydroxyethyl)phenyl)ethynyl)-1H-indazol-1-yl)-2-methyl-2-(methylsulfonyl)butanamide hydrochloride]
18 | 0.5 (≈ 1.06 µM) | 1 (≈ 2.12 µM) | 1 (≈ 2.12 µM) | 1 (≈ 2.12 µM) | C[C@@](CCn1ncc2cc(C#Cc3ccc([C@@H](O)CO)cc3)ccc21)(C(=O)NO)S(C)(=O)=O [Example 21, (R)-4-(5-((4-((R)-1,2-dihydroxyethyl)phenyl)ethynyl)-1H-indazol-1-yl)-N-hydroxy-2-methyl-2-(methylsulfonyl)butanamide]
19 | 0.5 (≈ 1.06 µM) | 0.5 (≈ 1.06 µM) | 1 (≈ 2.12 µM) | 1 (≈ 2.12 µM) | C[C@@](CCn1ncc2cc(C#Cc3ccc([C@H](O)CO)cc3)ccc21)(C(=O)NO)S(C)(=O)=O [Example 22, (R)-4-(5-((4-((S)-1,2-dihydroxyethyl)phenyl)ethynyl)-1H-indazol-1-yl)-N-hydroxy-2-methyl-2-(methylsulfonyl)butanamide]
20 | 0.125 (≈ 0.274 µM) | 0.125 (≈ 0.274 µM) | 0.5 (≈ 1.1 µM) | 1 (≈ 2.2 µM) | C[C@H](O)c1ccc(C#Cc2ccc3c(cnn3CC[C@](C)(C(=O)NO)S(C)(=O)=O)c2)cc1 [Example 23, (R)—N-hydroxy-4-(5-((4-((S)-1-hydroxyethyl)phenyl)ethynyl)-1H-indazol-1-yl)-2-methyl-2-(methylsulfonyl)butanamide]
21 | 0.125 (≈ 0.265 µM) | 0.25 (≈ 0.53 µM) | 0.5 (≈ 1.06 µM) | 2 (≈ 4.24 µM) | C[C@@](CCn1ncc2cc(C#Cc3ccc(OCCO)cc3)ccc21)(C(=O)NO)S(C)(=O)=O [Example 27, (R)—N-hydroxy-4-(5-((4-(2-hydroxyethoxy)phenyl)ethynyl)-1H-indazol-1-yl)-2-methyl-2-(methylsulfonyl)butanamide]
22 | 0.5 (≈ 1.03 µM) | 1 (≈ 2.06 µM) | 2 (≈ 4.13 µM) | 4 (≈ 8.26 µM) | C[C@@](CCn1ncc2cc(C#Cc3ccc(NC(=O)CO)cc3)ccc21)(C(=O)NO)S(C)(=O)=O [Example 28, (R)—N-hydroxy-4-(5-((4-(2-hydroxyacetamido)phenyl)ethynyl)-1H-indazol-1-yl)-2-methyl-2-(methylsulfonyl)butanamide]
23 | 0.25 (≈ 0.55 µM) | ≤ 0.063 | 0.25 (≈ 0.55 µM) | 2 (≈ 4.4 µM) | C[C@H](O)c1ccc(C#Cc2ccc3c(ccn3CC[C@](C)(C(=O)NO)S(C)(=O)=O)c2)cc1 [Example 35, (R)—N-hydroxy-4-(5-((4-((S)-1-hydroxyethyl)phenyl)ethynyl)-1H-indol-1-yl)-2-methyl-2-(methylsulfonyl)butanamide]

Source: US9624206B2, “Antibacterial 1H-indazole and 1H-indole derivatives” (priority 2013, dated 2017)
